Assay results reported in ChEMBL document CHEMBL3046933, “Synthesis and evaluation of a series of aminocyanopyridines as antimicrobial agents” (2011).
≈ marks a conversion by molar mass, not a printed value.

Experiments:
Assay type in all cases: functional
Pseudomonas aeruginosa [1] = assay: Antibacterial activity against Pseudomonas aeruginosa […] by macrobroth dilution method
Micrococcus luteus [2] = assay: Antibacterial activity against Micrococcus luteus NRRLB 4375 by macrobroth dilution method
Pseudomonas aeruginosa [3] = assay: Antibacterial activity against Pseudomonas aeruginosa […] at 100 ug/ml after 24 hr by disk diffusion method; settings: read-out: DIZ
Micrococcus luteus [4] = assay: Antibacterial activity against Micrococcus luteus NRRLB 4375 at 100 ug/ml after 24 hr by disk diffusion method; settings: NRRLB 4375, 24 h, read-out: DIZ
Bacillus subtilis [5] = assay: Antibacterial activity against Bacillus subtilis RSKK 244 by macrobroth dilution method
Bacillus subtilis [6] = assay: Antibacterial activity against Bacillus subtilis RSKK 244 at 100 ug/ml after 24 hr by disk diffusion method; settings: RSKK 244, 24 h, read-out: DIZ
Priestia megaterium = assay: Antibacterial activity against Bacillus megaterium clinical isolate at 100 ug/ml after 24 hr by disk diffusion method; settings: read-out: DIZ
Candida albicans = assay: Antifungal activity against Candida albicans ATCC 90028 at 100 ug/ml by disk diffusion method; settings: read-out: DIZ

Compound | MIC (Pseudomonas aeruginosa [1]) [µg/mL] | MIC (Micrococcus luteus [2]) [µg/mL] | zone of inhibition at 100 µg/mL (Pseudomonas aeruginosa [3]) [mm] | zone of inhibition at 100 µg/mL (Micrococcus luteus [4]) [mm] | MIC (Bacillus subtilis [5]) [µg/mL] | zone of inhibition at 100 µg/mL (Bacillus subtilis [6]) [mm] | zone of inhibition at 100 µg/mL (Priestia megaterium) [mm] | zone of inhibition at 100 µg/mL (Candida albicans) [mm]
Cc1ccc(-c2c(C#N)c(N)nc3c2CCCC3)s1 | 12.5 (≈ 46.4 µM) | 25 (≈ 92.8 µM) | 20 | 12 |  |  |  | 
Cc1ccc(-c2c(C#N)c(N)nc3c2CCCCC3)o1 | 25 (≈ 93.5 µM) | 25 (≈ 93.5 µM) | 14 | 9 |  |  |  | 
Cc1ccc(-c2c(C#N)c(N)nc3c2CCCC3)o1 |  | 37.5 (≈ 148 µM) |  | 11 |  |  |  | 
Cc1ccsc1-c1c(C#N)c(N)nc2c1CCC2 |  | 37.5 (≈ 147 µM) |  | 11 | 37.5 (≈ 147 µM) | 13 |  | 
Cc1ccsc1-c1c(C#N)c(N)nc2c1CCCC2 | 25 (≈ 92.8 µM) | 37.5 (≈ 139 µM) | 9 | 9 |  |  |  | 
Cc1ccsc1-c1c(C#N)c(N)nc2c1CCCCC2 | 12.5 (≈ 44.1 µM) |  | 17 |  | 37.5 (≈ 132 µM) | 10 |  | 
Cc1ccc(-c2c(C#N)c(N)nc3c2CCC3)s1 | 25 (≈ 97.9 µM) | 37.5 (≈ 147 µM) | 15 | 12 | 25 (≈ 97.9 µM) | 15 |  | 
Cc1ccc(-c2c(C#N)c(N)nc3c2CCCCC3)s1 | 25 (≈ 88.2 µM) | 25 (≈ 88.2 µM) | 19 | 20 | 37.5 (≈ 132 µM) | 10 |  | 
Cc1ccc(-c2c(C#N)c(N)nc3c2CCC3)o1 | 12.5 (≈ 52.2 µM) | 25 (≈ 104 µM) | 17 | 15 | 12.5 (≈ 52.2 µM) | 22.5 |  | 
CC1(C)S[C@@H]2[C@H](NC(=O)[C@H](N)c3ccccc3)C(=O)N2[C@H]1C(=O)O [AMPICILLIN] |  | 8 (≈ 22.9 µM) |  | 31 |  | 15 | 10 | 
OC(Cn1cncn1)(Cn1cncn1)c1ccc(F)cc1F [FLUCONAZOLE] |  | 8 (≈ 26.1 µM) |  |  |  |  |  | 
CC(=O)N1CCN(c2ccc(OCC3COC(Cn4ccnc4)(c4ccc(Cl)cc4Cl)O3)cc2)CC1 (stereo not drawn) [KETOCONAZOLE] |  |  |  |  |  |  |  | 16
CC1(C)S[C@@H]2[C@H](NC(=O)Cc3ccccc3)C(=O)N2[C@H]1C(=O)O [PENICILLIN G] |  |  |  | 9 |  |  |  | 
CN(C)[C@@H]1C(O)=C(C(N)=O)C(=O)[C@@]2(O)C(O)=C3C(=O)c4c(O)cccc4[C@@](C)(O)[C@H]3C[C@@H]12 [TETRACYCLINE] |  |  |  | 28 |  |  |  | 
